Assay [1] deals with Tyk2 kinase activity on STAT4. Description: pSTAT4 cell assay (MSD, NK92 cells). It counts as cell-based. The conditions noted are these: compounds 1 hr, stimulated 15 minutes. The procedure:
The inhibitory potency of compounds of the disclosure against the Tyk2 kinase activity on STAT4 was evaluated using an MSD-platform plate-based assay format. NK92 cells natively expressing STAT4 and Tyk2 were serum-starved to reduce background phosphorylation levels, then cells were treated compounds for 1 hr with a 10-point four-fold dilution series starting at 10 μM. Cells were then stimulated with 30 ng/mL IL2 for 15 minutes. Cells were lysed and […] levels were quantitated using an MSD plate-based assay with anti-STAT4 antibodies. The data were normalized and the percent activity versus log concentration of compound were fitted with a 4-parameter logistic model to generate to generate IC50 curves.

For a further assay, the target named is T1, JH2 domain of human Tyk2 (Homo sapiens, UniProt P29597).
T1 construct: 10×His-tagged TYK2 JH2 domain (amino acid 575-876)
Description: JH2 biochemical assay (TR-FRET probe displacement). It counts as binding. The conditions noted are these: JH2 biochemical assay. Summed up: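 10×His-tagged human TYK2 JH2 (aa 575-876, 2 nM) incubated 60 min with 2 nM fluorescent probe, 0.1 nM Tb anti-His antibody and compound (10-point 3-fold series from […] top). TR-FRET 520/495 nm ratio, falling with probe displacement, normalized and fitted to a 4-parameter logistic for IC50.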
On the technique in general: Time-resolved FRET reads energy transfer from a long-lived donor to a nearby acceptor.

We go through 24 compounds from US20260258032A1, “TYROSINE KINASE 2 INHIBITORS AND USES THEREOF” (BIOGEN MA INC., priority 2022, published 2026).

T1 sequence (P29597 575-876): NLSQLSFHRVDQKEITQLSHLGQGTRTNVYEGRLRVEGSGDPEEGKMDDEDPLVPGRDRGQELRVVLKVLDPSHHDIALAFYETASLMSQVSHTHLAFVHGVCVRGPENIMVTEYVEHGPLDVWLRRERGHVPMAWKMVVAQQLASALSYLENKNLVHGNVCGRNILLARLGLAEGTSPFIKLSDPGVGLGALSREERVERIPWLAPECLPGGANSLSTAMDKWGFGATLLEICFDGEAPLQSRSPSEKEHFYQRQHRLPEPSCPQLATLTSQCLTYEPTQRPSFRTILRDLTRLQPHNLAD

For `COC1CC(c2cc(N3CC4(CC4)c4cnc(NC(C)=O)cc43)nc(C(C)(F)F)n2)C1` (stereo not drawn) [Example 23, N-(1′-(2-(1,1-difluoroethyl)-6-(3-methoxycyclobutyl)pyrimidin-4-yl)-1′,2′-dihydrospiro[cyclopropane-1,3′-pyrrolo[3,2-c]pyridin]-6′-yl)acetamid], the IC50 in assay [1] was 0.01 to 0.1 µM; at JH2 domain of human Tyk2, not above 0.01 µM.

In the case of `CC(=O)Nc1cc2c(cn1)C1(CC1)CN2c1cc(C2CCC2)nc(C(C)(F)F)n1` [Example 24, N-(1′-(6-cyclobutyl-2-(1,1-difluoroethyl)pyrimidin-4-yl)-1′,2′-dihydrospiro[cyclopropane-1,3'-pyrrolo[3,2-c]pyridin]-6'-yl)acetamide], the IC50 was 0.01 to 0.1 µM in assay [1] and not above 0.01 µM at JH2 domain of human Tyk2.

Turning to `CC(=O)Nc1cc2c(cn1)C1(CC1)CN2c1cc(C2CCCO2)nc(C(C)(F)F)n1` (stereo not drawn) [Example 26, N-(1′-(2-(1,1-difluoroethyl)-6-(tetrahydrofuran-2-y1)pyrimidin-4-yl)-1′,2′-dihydrospiro[cyclopropane-1,3′-pyrrolo[3,2-c]pyridin]-6′-yl)acetamide], the half-inhibitory concentration (IC50) in assay [1] was 0.1 to 1 µM; on JH2 domain of human Tyk2, not above 0.01 µM.

As for `CSc1nc(C)cc(N2CC3(CC3)c3cnc(NC(C)=O)cc32)n1` [Example 29, N-(1′-(6-methyl-2-(methylthio)pyrimidin-4-yl)-1′,2′-dihydrospiro[cyclopropane-1,3′-pyrrolo[3,2-c]pyridin]-6′-yl)acetamide], the IC50 is 0.1 to 1 µM in assay [1] and not above 0.01 µM on JH2 domain of human Tyk2.

Consider `COc1cc(N2CCc3cnc(NC(C)=O)cc32)nc(C(C)(F)F)n1` [Example 34, N-(1-(2-(1,1-difluoroethyl)-6-methoxypyrimidin-4-yl)-2,3-dihydro-1H-pyrrolo[3,2-c]pyridin-6-yl)acetamide], for which the IC50 was not below 1 µM in assay [1] and 0.01 to 0.1 µM at JH2 domain of human Tyk2.

As to `COCCN(C)c1cc(N2CC3(CC3)c3cnc(NC(C)=O)cc32)nc(C(C)(F)F)n1` [Example 50, N-(1′-(2-(1,1-difluoroethyl)-6-((2-methoxyethyl)(methyl)amino)pyrimidin-4-yl)-1′,2′-dihydrospiro[cyclopropane-1,3′-pyrrolo[3,2-c]pyridin]-6′-yl)acetamide], the IC50 in assay [1] was 0.1 to 1 µM; at JH2 domain of human Tyk2 it was not above 0.01 µM.

`CC(=O)Nc1cc2c(cn1)C1(CC1)CN2c1cc(N2CCC2)nc(C(C)(F)F)n1` [Example 51, N-(1′-(6-(azetidin-1-yl)-2-(1,1-difluoroethyl)pyrimidin-4-yl)-1′,2′-dihydrospiro[cyclopropane-1,3′-pyrrolo[3,2-c]pyridin]-6′-yl)acetamide]: the IC50 in assay [1] is 0.1 to 1 µM; at JH2 domain of human Tyk2 it was not above 0.01 µM.

On to `CC(=O)Nc1cc2c(cn1)C1(CC1)CN2c1cc(N2CCOCC2)nc(C(C)(F)F)n1` [Example 52, N-(1′-(2-(1,1-difluoroethyl)-6-morpholinopyrimidin-4-y1)-1′,2′-dihydrospiro[cyclopropane-1,3′-pyrrolo[3,2-c]pyridin]-6′-yl)acetamide], for which the IC50 was 0.1 to 1 µM in assay [1] and not above 0.01 µM on JH2 domain of human Tyk2.

With `CC(=O)Nc1cc2c(cn1)C1(CC1)CN2c1cc(C(C)C)nc(C(C)(F)F)n1` [Example 53, N-(1′-(2-(1,1-difluoroethyl)-6-isopropylpyrimidin-4-yl)-1′,2′-dihydrospiro[cyclopropane-1,3′-pyrrolo[3,2-c]pyridin]-6′-yl)acetamide], the 50% inhibitory concentration (IC50) in assay [1] was 0.01 to 0.1 µM; on JH2 domain of human Tyk2 it was not above 0.01 µM.

In the case of `CC(=O)Nc1cc2c(cn1)C1(CC1)CN2c1cc(C)nc(C2CC2)n1` [Example 54, N-(1′-(2-cyclopropyl-6-methylpyrimidin-4-yl)-1′,2′-dihydrospiro[cyclopropane-1,3′-pyrrolo[3,2-c]pyridin]-6′-yl)acetamide], the IC50 in assay [1] was 0.1 to 1 µM; on JH2 domain of human Tyk2, not above 0.01 µM.

With `CC(=O)Nc1cc2c(cn1)C1(CC1)CN2c1cc(C)nc(C(C)(C)C)n1` [Example 55, N-(1′-(2-(tert-butyl)-6-methylpyrimidin-4-yl)-1′,2′-dihydrospiro[cyclopropane-1,3′-pyrrolo[3,2-c]pyridin]-6′-yl)acetamide], the IC50 in assay [1] is 0.1 to 1 µM; at JH2 domain of human Tyk2, not above 0.01 µM.

For `CCCCc1nc(C)cc(N2CC3(CC3)c3cnc(NC(C)=O)cc32)n1` [Example 58, N-(1′-(2-butyl-6-methylpyrimidin-4-yl)-1′,2′-dihydrospiro[cyclopropane-1,3′-pyrrolo[3,2-c]pyridin]-6′-yl)acetamide], the 50% inhibitory concentration (IC50) in assay [1] was not below 1 µM; on JH2 domain of human Tyk2, 0.01 to 0.1 µM.

Take `CCOCc1nc(C)cc(N2CC3(CC3)c3cnc(NC(C)=O)cc32)n1` [Example 59, N-(1′-(2-(ethoxymethyl)-6-methylpyrimidin-4-yl)-1′,2′-dihydrospiro[cyclopropane-1,3′-pyrrolo[3,2-c]pyridin]-6′-yl)acetamide]: the IC50 is not below 1 µM in assay [1] and 0.1 to 1 µM on JH2 domain of human Tyk2.

Regarding `CC(=O)Nc1cc2c(cn1)C1(CC1)CN2c1cc(C)nc(C(F)(F)F)n1` [Example 61, N-(1′-(6-methyl-2-(trifluoromethyl)pyrimidin-4-yl)-1′,2′-dihydrospiro[cyclopropane-1,3′-pyrrolo[3,2-c]pyridin]-6′-yl)acetamide], the IC50 in assay [1] was not below 1 µM; on JH2 domain of human Tyk2 it was 0.01 to 0.1 µM.

Take `CC(=O)Nc1cc2c(cn1)C1(CC1)CN2c1cc(C)nc(CC2CC2)n1` [Example 62, N-(1′-(2-(cyclopropylmethyl)-6-methylpyrimidin-4-yl)-1′,2′-dihydrospiro[cyclopropane-1,3′-pyrrolo[3,2-c]pyridin]-6′-yl)acetamide]: the IC50 in assay [1] was 0.1 to 1 µM; at JH2 domain of human Tyk2, not above 0.01 µM.

`CC(=O)Nc1cc2c(cn1)C1(CC1)CN2c1cc(C)nc(C(F)F)n1` [Example 63, N-(1′-(2-(difluoromethyl)-6-methylpyrimidin-4-yl)-1′,2′-dihydrospiro[cyclopropane-1,3′-pyrrolo[3,2-c]pyridin]-6′-yl)acetamide]: the IC50 in assay [1] is not below 1 µM; at JH2 domain of human Tyk2 it was 0.01 to 0.1 µM.

With `CCc1nc(C)cc(N2CC3(CC3)c3cnc(NC(C)=O)cc32)n1` [Example 64, N-(1′-(2-ethyl-6-methylpyrimidin-4-yl)-1′,2′-dihydrospiro[cyclopropane-1,3′-pyrrolo[3,2-c]pyridin]-6′-yl)acetamide], the IC50 in assay [1] was not below 1 µM; on JH2 domain of human Tyk2, 0.01 to 0.1 µM.

Turning to `CCCc1nc(C)cc(N2CC3(CC3)c3cnc(NC(C)=O)cc32)n1` [Example 65, N-(1′-(6-methyl-2-propylpyrimidin-4-yl)-1′,2′-dihydrospiro[cyclopropane-1,3′-pyrrolo[3,2-c]pyridin]-6′-yl)acetamide], the IC50 in assay [1] was in the range of 0.1 to 1 µM; at JH2 domain of human Tyk2 it was 0.01 to 0.1 µM.

Consider `CC(=O)Nc1cc2c(cn1)C1(CC1)CN2c1cc(C)nc(C(C)C)n1` [Example 66, N-(1′-(2-isopropyl-6-methylpyrimidin-4-yl)-1′,2′-dihydrospiro[cyclopropane-1,3′-pyrrolo[3,2-c]pyridin]-6′-yl)acetamide], for which the IC50 is 0.1 to 1 µM in assay [1] and not above 0.01 µM at JH2 domain of human Tyk2.

With `CC(=O)Nc1cc2c(cn1)C1(CC1)CN2c1nc(C)nc(C)c1F` [Example 67, N-(1′-(5-fluoro-2,6-dimethylpyrimidin-4-yl)-1′,2′-dihydrospiro[cyclopropane-1,3′-pyrrolo[3,2-c]pyridin]-6′-yl)acetamide], the IC50 in assay [1] was not below 1 µM; at JH2 domain of human Tyk2 it was 0.1 to 1 µM.

`CC(=O)Nc1cc2c(cn1)C1(CC1)CN2c1cc(C)nc(C2(C)CC2)n1` [Example 69, N-(1′-(6-methyl-2-(1-methylcyclopropyl)pyrimidin-4-yl)-1′,2′-dihydrospiro[cyclopropane-1,3′-pyrrolo[3,2-c]pyridin]-6′-yl)acetamide]: the results for the 50% inhibitory concentration (IC50) (in assay [1]; at JH2 domain of human Tyk2) were 0.1 to 1 µM and not above 0.01 µM, respectively.

For `CC(=O)Nc1cc2c(cn1)C1(CC1)CN2c1cc(C)nc(C2CCCOC2)n1` (stereo not drawn) [Example 70, N-(1′-(6-methyl-2-(tetrahydro-2H-pyran-3-yl)pyrimidin-4-yl)-1′,2′-dihydrospiro[cyclopropane-1,3′-pyrrolo[3,2-c]pyridin]-6′-yl)acetamide], the half-inhibitory concentration (IC50) in assay [1] is 0.1 to 1 µM; at JH2 domain of human Tyk2, not above 0.01 µM.

As for `COCCCc1nc(C)cc(N2CC3(CC3)c3cnc(NC(C)=O)cc32)n1` [Example 71, N-(1′-(2-(3-methoxypropyl)-6-methylpyrimidin-4-yl)-1′,2′-dihydrospiro[cyclopropane-1,3′-pyrrolo[3,2-c]pyridin]-6′-yl)acetamide], the figures for the IC50 (in assay [1]; on JH2 domain of human Tyk2) were not below 1 µM and 0.01 to 0.1 µM, respectively.

In the case of `CC(=O)Nc1cc2c(cn1)C1(CC1)CN2c1cc([C@H]2C[C@@H](C#N)C2)nc(C(C)(F)F)n1` [Example 74, N-(1′-(6-((1s,3s)-3-cyanocyclobutyl)-2-(1,1-difluoroethyl)pyrimidin-4-yl)-1′,2′-dihydrospiro[cyclopropane-1,3′-pyrrolo[3,2-c]pyridin]-6′-yl)acetamide or N-(1′-(6-((1r,3r)-3-cyanocyclobutyl)-2-(1,1-difluoroethyl)pyrimidin-4-yl)-1′,2′-dihydrospiro[cyclopropane-1,3′-pyrrolo[3,2-c]pyridin]-6′-yl)acetamide], the 50% inhibitory concentration (IC50) was 0.01 to 0.1 µM in assay [1] and not above 0.01 µM on JH2 domain of human Tyk2.

Broadly, the IC50 is the concentration that inhibits the measured activity by half. A low value points to greater potency.
